IC50 data for 1 compound are collected here from US8653274B2, “Compounds suitable as precursors to compounds that are useful for imaging amyloid deposits” (AstraZeneca AB, priority 2008, dated 2014).

This test deals with amyloid deposits (Homo sapiens, UniProt P05067). As to the kind of experiment: competition binding assay described in WO2007/086800. Conditions: unlabeled compound.
amyloid deposits, sequence (P05067 672-711 limits assumed): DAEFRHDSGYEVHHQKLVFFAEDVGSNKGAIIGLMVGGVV

Usually IC50 stands for the midpoint of a concentration-inhibition curve. The low end stands for greater potency, the high end for weaker potency. With `CNc1ccc(-c2cc3cc(O)ccc3o2)c(F)n1` [2-(2-Fluoro-6-methylamino-pyridin-3-yl)-benzofuran-5-ol], the IC50 stood at 13 nM.
